Measurements: patent US20060141044A1, “Pharmaceutical compositions based on diclofenac derivate” (priority 2003, published 2006)

Experiment: Aqueous solubility / Biopharmaceutical Classification System classification
Assay type: physicochemical
Description: 2-[2-(nitrooxy)ethoxy]ethyl {2-[(2,6-dichlorophenyl)amino]phenyl}acetate is a lipophilic drug with poor aqueous solubility and a low melting point. Said drug can be classified into class 2 according to the Biopharmaceutical Classification System proposed by Amidon et al. (Pharm. Res. 12 (1995) pp. 413420). Compounds of this class are characterised by their low aqueous solubility but reasonably well permeability. A biopharmaceutical problem with these drugs is that their absorption from the gastro-intestinal tract (GIT) may be dissolution rate limited, resulting in poor bioavailibility upon oral administration. One object of the invention is to provide an oral drug delivery composition with satisfactory bioavailability.

- aqueous solubility (qualitative statement): poor
- class according to the Biopharmaceutical Classification System (system proposed by Amidon et al.): class 2
Compound: O=C(Cc1ccccc1Nc1c(Cl)cccc1Cl)OCCOCCO[N+](=O)[O-] [2-[2-(nitrooxy)ethoxy]ethyl {2-[(2,6-dichlorophenyl)amino]phenyl}acetate]
